Starred links: 1 amine or outer side, 2 acyl side, 3 side chain; linkers in the order of their positions; H or OH if unused. Positions of bridges follow the written chain, without caps; N, C: chain ends. Non-standard residues stand in square brackets, D forms with d. Residues, ends and D or L forms follow the SMILES beside them. X30 = O=C([C@H](CCNC[C@H](O)[C@@H](O)[C@H](O[C@H]1O[C@H](CO)[C@@H](O)[C@H](O)[C@H]1O)[C@H](O)CO)N[*:1])[*:2]; X29 = O=C([C@H](CNC[C@H](O)[C@@H](O)[C@H](O[C@H]1O[C@H](CO)[C@@H](O)[C@H](O)[C@H]1O)[C@H](O)CO)N[*:1])[*:2]; X56 = O=C([C@H](CCNC[C@@H](O)[C@H](O)[C@@H](O)[C@@H](O)[C@H](O)CO)N[*:1])[*:2]; X49 = O=C([C@H](CNC[C@@H](O)[C@H](O)[C@@H](O)[C@@H](O)[C@H](O)CO)N[*:1])[*:2]; X66 = C[C@H](O)[C@H](O)[C@@H](O)[C@@H](O)CNCC[C@H](N[*:1])C(=O)[*:2]; X52 = C[C@H](O)[C@H](O)[C@@H](O)[C@@H](O)CNC[C@H](N[*:1])C(=O)[*:2]; X32 = O=C([C@H](CCNC[C@@H](O)[C@H](O)[C@@H](O)CO)N[*:1])[*:2]; X31 = O=C([C@H](CNC[C@@H](O)[C@H](O)[C@@H](O)CO)N[*:1])[*:2]; Trp(1-CH2COOH) = N[C@@H](Cc1cn(CC(=O)O)c2ccccc12)C(=O)O; X21 = O=C([C@H](CCNCc1c2ccccc2nc2ccccc12)N[*:1])[*:2]; X10 = O=C([C@H](CNCc1c2ccccc2nc2ccccc12)N[*:1])[*:2]; X20 = O=C([C@H](CNCc1nccc2ccccc12)N[*:1])[*:2]; Hyp = O=C(O)[C@@H]1C[C@@H](O)CN1; NMeNle = CCCC[C@H](NC)C(=O)O; NMeA = CN[C@@H](C)C(=O)O; Dab = NCC[C@H](N)C(=O)O

T1 sequence (Q9NZQ7 18-239): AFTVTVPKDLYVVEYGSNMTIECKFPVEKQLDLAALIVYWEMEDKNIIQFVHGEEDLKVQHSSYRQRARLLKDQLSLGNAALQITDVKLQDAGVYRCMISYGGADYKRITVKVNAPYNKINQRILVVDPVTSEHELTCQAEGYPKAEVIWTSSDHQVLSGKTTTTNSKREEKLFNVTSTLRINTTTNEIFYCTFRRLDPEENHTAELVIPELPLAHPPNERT

This test has as its target T1, PD-1/PD-L1 (Homo sapiens, UniProt Q9NZQ7).
T1 construct: TVMV protease site (linker) (C); made in house; host or cells: HEK293T cells
Put plainly: PD-1/PD-L1 Homogenous Time-Resolved Fluorescence (HTRF) binding assay. The following applies: PD-L1-His 10 nM, PD-1-Ig 20 nM. From the text: The ability of the compounds of formula (I) to bind to PD-L1 was investigated using a PD-1/PD-L1 Homogenous Time-Resolved Fluorescence (HTRF) binding assay.
The interaction of PD-1 and PD-L1 can be assessed using soluble, purified preparations of the extracellular domains of the two proteins. The PD-1 and PD-L1 protein extracellular domains were expressed as fusion proteins with detection tags, for PD-1, the tag was the Fc portion of Immunoglobulin (PD-1-Ig) and for PD-L1 it was the 6 histidine motif (PD-L1-His). All binding studies were performed in an HTRF assay buffer consisting of dPBS supplemented with 0.1% […] bovine serum albumin and 0.05% (v/v) Tween-20. For the h/PD-L1-His binding assay, inhibitors were pre-incubated with PD-L1-His (10 nM final) for 15 m in 4 µl of assay buffer, followed by addition of PD-1-Ig (20 nM final) in 1 µl of assay buffer and further incubation for 15 m. HTRF detection was achieved using europium crypate-labeled anti-Ig (1 nM final) and allophycocyanin (APC) labeled anti-His (20 nM final). Antibodies were diluted in HTRF detection buffer and 5 µl was dispensed on top of the binding reaction. The reaction mixture was allowed to equilibrate for 30 minutes and the resulting signal (665 nm/620 nm ratio) was obtained using an EnVision fluorometer. Additional binding assays were established between the human proteins PD-1-Ig/PD-L2-His (20 & 5 nM, respectively) and CD80-His/PD-L1-Ig (100 & 10 nM, respectively).
Recombinant Proteins: Human PD-1 (25-167) with a C-terminal human Fc domain of immunoglobulin G (Ig) epitope tag [hPD-1 (25-167)-3S-IG] and human PD-L1 (18-239) with a C-terminal His epitope tag [hPD-L1(18-239)-TVMV-His] were expressed in HEK293T cells and purified sequentially by ProteinA affinity chromatography and size exclusion chromatography. Human PD-L2-His and CD80-His was obtained through commercial sources.
Table 1 lists the IC50 values for representative examples of this disclosure measured in the PD-1/PD-L1 Homogenous Time-Resolved Fluorescence (HTRF) binding assay.
In general, IC50 refers to the midpoint of a concentration-inhibition curve. Read a high IC50 as weaker potency. `CCCC[C@H]1C(=O)N(C)[C@@H](CCCC)C(=O)N[C@@H](CC(C)C)C(=O)N[C@H](C(=O)NCC(N)=O)CSCC(=O)N[C@@H](Cc2ccc(O)cc2)C(=O)N(C)[C@@H](C)C(=O)N[C@@H](CC(N)=O)C(=O)N2CCC[C@H]2C(=O)N[C@@H](CNCc2c3ccccc3nc3ccccc23)C(=O)N[C@@H](CC(C)C)C(=O)N2C[C@H](O)C[C@H]2C(=O)N[C@@H](Cc2c[nH]c3ccccc23)C(=O)N[C@@H](CCNCc2c3ccccc3nc3ccccc23)C(=O)N[C@@H](Cc2cn(CC(=O)O)c3ccccc23)C(=O)N1C` [Example 1020] ({CH2CO}-Y[NMeA]NP[X10]L[Hyp]W[X21][Trp(1-CH2COOH)][NMeNle][NMeNle]LCG-NH2; thioether N-14) yielded an IC50 of 9.9 nM. For `CCCC[C@H]1C(=O)N(C)[C@@H](CCCC)C(=O)N[C@@H](CC(C)C)C(=O)N[C@H](C(=O)NCC(N)=O)CSCC(=O)N[C@@H](Cc2ccc(O)cc2)C(=O)N(C)[C@@H](C)C(=O)N[C@@H](CC(N)=O)C(=O)N2CCC[C@H]2C(=O)N[C@@H](CNC[C@@H](O)[C@H](O)[C@@H](O)CO)C(=O)N[C@@H](CC(C)C)C(=O)N2C[C@H](O)C[C@H]2C(=O)N[C@@H](Cc2c[nH]c3ccccc23)C(=O)N[C@@H](CCNC[C@@H](O)[C@H](O)[C@@H](O)CO)C(=O)N[C@@H](Cc2cn(CC(=O)O)c3ccccc23)C(=O)N1C` [Example 2018] ({CH2CO}-Y[NMeA]NP[X31]L[Hyp]W[X32][Trp(1-CH2COOH)][NMeNle][NMeNle]LCG-NH2; thioether N-14) the value was 2.4 nM; for `CCCC[C@H]1C(=O)N(C)[C@@H](CCCC)C(=O)N[C@@H](CC(C)C)C(=O)N[C@H](C(=O)NCC(N)=O)CSCC(=O)N[C@@H](Cc2ccc(O)cc2)C(=O)N(C)[C@@H](C)C(=O)N[C@@H](CC(N)=O)C(=O)N2CCC[C@H]2C(=O)N[C@@H](CNCc2nccc3ccccc23)C(=O)N[C@@H](CC(C)C)C(=O)N2C[C@H](O)C[C@H]2C(=O)N[C@@H](Cc2c[nH]c3ccccc23)C(=O)N[C@@H](CCN)C(=O)N[C@@H](Cc2cn(CC(=O)O)c3ccccc23)C(=O)N1C` [Example 1018] ({CH2CO}-Y[NMeA]NP[X20]L[Hyp]W[Dab][Trp(1-CH2COOH)][NMeNle][NMeNle]LCG-NH2; thioether N-14), 8.4 nM. The compound `CCCC[C@H]1C(=O)N(C)[C@@H](CCCC)C(=O)N[C@@H](CC(C)C)C(=O)N[C@H](C(=O)NCC(N)=O)CSCC(=O)N[C@@H](Cc2ccc(O)cc2)C(=O)N(C)[C@@H](C)C(=O)N[C@@H](CC(N)=O)C(=O)N2CCC[C@H]2C(=O)N[C@@H](CNC[C@H](O)[C@@H](O)[C@H](O[C@H]2O[C@H](CO)[C@@H](O)[C@H](O)[C@H]2O)[C@H](O)CO)C(=O)N[C@@H](CC(C)C)C(=O)N2C[C@H](O)C[C@H]2C(=O)N[C@@H](Cc2c[nH]c3ccccc23)C(=O)N[C@@H](CCNC[C@H](O)[C@@H](O)[C@H](O[C@H]2O[C@H](CO)[C@@H](O)[C@H](O)[C@H]2O)[C@H](O)CO)C(=O)N[C@@H](Cc2cn(CC(=O)O)c3ccccc23)C(=O)N1C` [Example 2010] ({CH2CO}-Y[NMeA]NP[X29]L[Hyp]W[X30][Trp(1-CH2COOH)][NMeNle][NMeNle]LCG-NH2; thioether N-14) had an IC50 of 2.1 nM.

Compound `CCCC[C@H]1C(=O)N(C)[C@@H](CCCC)C(=O)N[C@@H](CC(C)C)C(=O)N[C@H](C(=O)NCC(N)=O)CSCC(=O)N[C@@H](Cc2ccc(O)cc2)C(=O)N(C)[C@@H](C)C(=O)N[C@@H](CC(N)=O)C(=O)N2CCC[C@H]2C(=O)N[C@@H](CNC[C@H](O)[C@H](O)[C@@H](O)[C@H](C)O)C(=O)N[C@@H](CC(C)C)C(=O)N2C[C@H](O)C[C@H]2C(=O)N[C@@H](Cc2c[nH]c3ccccc23)C(=O)N[C@@H](CCNC[C@H](O)[C@H](O)[C@@H](O)[C@H](C)O)C(=O)N[C@@H](Cc2cn(CC(=O)O)c3ccccc23)C(=O)N1C` [Example 2044] ({CH2CO}-Y[NMeA]NP[X52]L[Hyp]W[X66][Trp(1-CH2COOH)][NMeNle][NMeNle]LCG-NH2; thioether N-14) had an IC50 of 12 nM.

Consider `CCCC[C@H]1C(=O)N(C)[C@@H](CCCC)C(=O)N[C@@H](CC(C)C)C(=O)N[C@H](C(=O)NCC(N)=O)CSCC(=O)N[C@@H](Cc2ccc(O)cc2)C(=O)N(C)[C@@H](C)C(=O)N[C@@H](CC(N)=O)C(=O)N2CCC[C@H]2C(=O)N[C@@H](CNC[C@@H](O)[C@H](O)[C@@H](O)[C@@H](O)[C@H](O)CO)C(=O)N[C@@H](CC(C)C)C(=O)N2C[C@H](O)C[C@H]2C(=O)N[C@@H](Cc2c[nH]c3ccccc23)C(=O)N[C@@H](CCNC[C@@H](O)[C@H](O)[C@@H](O)[C@@H](O)[C@H](O)CO)C(=O)N[C@@H](Cc2cn(CC(=O)O)c3ccccc23)C(=O)N1C` [Example 2029] ({CH2CO}-Y[NMeA]NP[X49]L[Hyp]W[X56][Trp(1-CH2COOH)][NMeNle][NMeNle]LCG-NH2; thioether N-14), for which the IC50 is 8.5 nM.

For the origin of these results see patent US20230242585A1, “IMMUNOMODULATORS” (Bristol-Myers Squibb Company, priority 2020, published 2023).
